Columns and labels:
[1] = biological target: 5-hydroxytryptamine receptor 1A (Homo sapiens) (UniProt P08908); assay: Selectivity interaction (CEREP ExpressProfile selectivity/specificity profile (human recombinant receptors)) EUB0000213bCl HTR1A; settings: at 10 µM
[2] = biological target: Sodium-dependent serotonin transporter (Homo sapiens) (UniProt P31645); assay: Selectivity interaction (CEREP ExpressProfile selectivity/specificity profile (human recombinant receptors)) EUB0000213bCl SLC6A4; settings: at 10 µM
Chain of Sodium-dependent serotonin transporter (Homo sapiens) (P31645 whole entry, looked up): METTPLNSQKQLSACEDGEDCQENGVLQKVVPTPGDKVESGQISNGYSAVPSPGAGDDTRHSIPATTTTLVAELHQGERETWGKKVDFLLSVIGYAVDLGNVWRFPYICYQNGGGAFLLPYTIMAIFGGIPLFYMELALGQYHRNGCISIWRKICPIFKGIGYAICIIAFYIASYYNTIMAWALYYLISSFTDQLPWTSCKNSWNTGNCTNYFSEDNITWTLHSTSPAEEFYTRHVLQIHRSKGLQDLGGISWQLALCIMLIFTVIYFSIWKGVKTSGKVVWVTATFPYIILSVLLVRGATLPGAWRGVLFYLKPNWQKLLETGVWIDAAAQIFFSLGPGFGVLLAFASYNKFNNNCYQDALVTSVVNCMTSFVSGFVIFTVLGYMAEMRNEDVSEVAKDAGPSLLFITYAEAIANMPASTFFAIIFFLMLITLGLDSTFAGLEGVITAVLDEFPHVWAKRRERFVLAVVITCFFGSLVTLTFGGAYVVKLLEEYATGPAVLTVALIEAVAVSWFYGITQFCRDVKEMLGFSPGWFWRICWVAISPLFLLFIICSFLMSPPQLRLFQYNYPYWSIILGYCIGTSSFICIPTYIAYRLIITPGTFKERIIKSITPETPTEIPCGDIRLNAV

[3] = biological target: Sodium-dependent dopamine transporter (Homo sapiens, UniProt Q01959); assay: Selectivity interaction (CEREP ExpressProfile selectivity/specificity profile (human recombinant receptors)) EUB0000213bCl SLC6A3; settings: at 10 µM
Chain of Sodium-dependent dopamine transporter (Q01959 whole entry): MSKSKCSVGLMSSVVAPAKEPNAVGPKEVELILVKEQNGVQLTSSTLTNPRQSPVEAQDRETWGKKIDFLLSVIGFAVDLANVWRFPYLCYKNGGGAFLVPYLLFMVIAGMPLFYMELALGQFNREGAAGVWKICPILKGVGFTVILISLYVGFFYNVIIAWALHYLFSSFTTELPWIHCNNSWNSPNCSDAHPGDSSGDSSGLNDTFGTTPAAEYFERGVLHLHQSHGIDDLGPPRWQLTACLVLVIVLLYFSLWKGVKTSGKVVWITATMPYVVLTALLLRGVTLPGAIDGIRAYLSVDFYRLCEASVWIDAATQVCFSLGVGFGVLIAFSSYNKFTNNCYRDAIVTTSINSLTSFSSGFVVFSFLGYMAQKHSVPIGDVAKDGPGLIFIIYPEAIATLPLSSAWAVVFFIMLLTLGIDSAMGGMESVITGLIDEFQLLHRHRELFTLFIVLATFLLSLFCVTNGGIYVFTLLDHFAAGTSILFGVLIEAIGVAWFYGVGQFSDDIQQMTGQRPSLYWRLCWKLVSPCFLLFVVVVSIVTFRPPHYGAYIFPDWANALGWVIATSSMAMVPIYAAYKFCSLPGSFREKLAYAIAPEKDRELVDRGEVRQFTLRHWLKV

[4] = biological target: RAF proto-oncogene serine/threonine-protein kinase (Homo sapiens) (UniProt P04049); settings: at 1 µM
Chain of RAF proto-oncogene serine/threonine-protein kinase (Homo sapiens) (P04049 whole entry): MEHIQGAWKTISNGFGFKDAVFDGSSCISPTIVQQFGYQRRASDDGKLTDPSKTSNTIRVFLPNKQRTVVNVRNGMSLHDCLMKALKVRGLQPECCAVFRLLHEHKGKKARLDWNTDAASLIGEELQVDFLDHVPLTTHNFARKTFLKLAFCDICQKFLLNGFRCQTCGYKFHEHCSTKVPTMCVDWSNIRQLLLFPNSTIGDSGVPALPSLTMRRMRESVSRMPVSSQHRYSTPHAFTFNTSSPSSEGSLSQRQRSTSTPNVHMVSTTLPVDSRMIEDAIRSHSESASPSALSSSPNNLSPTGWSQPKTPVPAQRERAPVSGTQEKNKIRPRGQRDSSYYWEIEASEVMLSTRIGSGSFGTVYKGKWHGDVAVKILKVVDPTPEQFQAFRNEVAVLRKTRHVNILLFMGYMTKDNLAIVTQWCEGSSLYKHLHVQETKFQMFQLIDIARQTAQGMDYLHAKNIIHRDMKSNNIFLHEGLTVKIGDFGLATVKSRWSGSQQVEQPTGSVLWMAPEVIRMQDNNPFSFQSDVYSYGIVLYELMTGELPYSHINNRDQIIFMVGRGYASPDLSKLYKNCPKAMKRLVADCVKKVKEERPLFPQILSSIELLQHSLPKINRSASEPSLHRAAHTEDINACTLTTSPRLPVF

[5] = biological target: T1, Muscarinic acetylcholine receptor M2 (Homo sapiens) (UniProt P08172); assay: Selectivity interaction (Eurofins-Panlabs panel) EUB0000295b CHRM2; settings: at 10 µM
T1 sequence (whole entry): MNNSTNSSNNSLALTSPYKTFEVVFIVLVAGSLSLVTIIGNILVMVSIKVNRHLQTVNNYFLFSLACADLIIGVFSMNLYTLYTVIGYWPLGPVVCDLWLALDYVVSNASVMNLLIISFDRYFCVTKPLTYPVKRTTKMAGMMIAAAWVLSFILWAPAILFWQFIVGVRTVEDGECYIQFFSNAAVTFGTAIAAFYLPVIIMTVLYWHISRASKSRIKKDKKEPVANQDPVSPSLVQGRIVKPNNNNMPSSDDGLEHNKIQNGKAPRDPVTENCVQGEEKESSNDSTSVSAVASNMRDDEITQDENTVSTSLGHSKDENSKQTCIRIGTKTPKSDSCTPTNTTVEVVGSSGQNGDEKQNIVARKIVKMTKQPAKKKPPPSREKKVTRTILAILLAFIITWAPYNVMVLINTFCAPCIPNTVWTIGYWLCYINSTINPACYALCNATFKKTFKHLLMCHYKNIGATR

[6] = biological target: T2, Phosphatidylinositol 4,5-bisphosphate 3-kinase catalytic subunit delta isoform (Homo sapiens) (UniProt O00329); assay: Selectivity interaction (KinomeScan (DiscoverX)) EUB0000295b PIK3CD; settings: at 1 µM
T2 sequence (whole entry): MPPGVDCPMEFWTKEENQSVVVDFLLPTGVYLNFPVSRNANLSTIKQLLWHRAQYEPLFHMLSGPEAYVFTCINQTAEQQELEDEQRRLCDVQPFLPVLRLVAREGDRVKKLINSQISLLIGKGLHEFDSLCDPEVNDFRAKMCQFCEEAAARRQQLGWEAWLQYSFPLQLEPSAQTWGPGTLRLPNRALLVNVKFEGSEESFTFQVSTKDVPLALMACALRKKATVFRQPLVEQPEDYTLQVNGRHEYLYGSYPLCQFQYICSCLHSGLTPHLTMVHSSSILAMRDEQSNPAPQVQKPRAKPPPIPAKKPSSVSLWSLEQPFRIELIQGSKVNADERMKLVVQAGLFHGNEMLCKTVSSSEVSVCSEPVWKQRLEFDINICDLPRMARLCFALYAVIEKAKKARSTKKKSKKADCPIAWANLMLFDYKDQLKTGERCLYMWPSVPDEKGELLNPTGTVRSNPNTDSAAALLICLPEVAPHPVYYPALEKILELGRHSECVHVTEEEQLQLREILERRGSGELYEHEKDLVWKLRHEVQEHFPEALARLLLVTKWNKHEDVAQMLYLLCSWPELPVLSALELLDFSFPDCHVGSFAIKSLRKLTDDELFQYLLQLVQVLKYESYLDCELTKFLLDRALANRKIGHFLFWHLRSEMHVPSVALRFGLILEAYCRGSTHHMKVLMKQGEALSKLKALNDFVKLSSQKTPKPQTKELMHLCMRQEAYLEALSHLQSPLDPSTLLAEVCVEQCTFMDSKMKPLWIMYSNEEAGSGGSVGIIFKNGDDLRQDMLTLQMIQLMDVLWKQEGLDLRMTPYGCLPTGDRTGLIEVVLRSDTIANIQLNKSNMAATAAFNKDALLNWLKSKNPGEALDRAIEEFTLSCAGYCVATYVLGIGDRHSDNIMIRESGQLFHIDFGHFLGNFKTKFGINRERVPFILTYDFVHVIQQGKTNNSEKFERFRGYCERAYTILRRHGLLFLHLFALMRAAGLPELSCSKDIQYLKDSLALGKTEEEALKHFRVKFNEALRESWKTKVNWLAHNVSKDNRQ

[7] = biological target: SRSF protein kinase 2 (Homo sapiens) (UniProt P78362); assay: Selectivity interaction (KinomeScan (DiscoverX)) EUB0000295b SRPK2; settings: at 1 µM
Chain of SRSF protein kinase 2 (Homo sapiens) (P78362 whole entry, looked up): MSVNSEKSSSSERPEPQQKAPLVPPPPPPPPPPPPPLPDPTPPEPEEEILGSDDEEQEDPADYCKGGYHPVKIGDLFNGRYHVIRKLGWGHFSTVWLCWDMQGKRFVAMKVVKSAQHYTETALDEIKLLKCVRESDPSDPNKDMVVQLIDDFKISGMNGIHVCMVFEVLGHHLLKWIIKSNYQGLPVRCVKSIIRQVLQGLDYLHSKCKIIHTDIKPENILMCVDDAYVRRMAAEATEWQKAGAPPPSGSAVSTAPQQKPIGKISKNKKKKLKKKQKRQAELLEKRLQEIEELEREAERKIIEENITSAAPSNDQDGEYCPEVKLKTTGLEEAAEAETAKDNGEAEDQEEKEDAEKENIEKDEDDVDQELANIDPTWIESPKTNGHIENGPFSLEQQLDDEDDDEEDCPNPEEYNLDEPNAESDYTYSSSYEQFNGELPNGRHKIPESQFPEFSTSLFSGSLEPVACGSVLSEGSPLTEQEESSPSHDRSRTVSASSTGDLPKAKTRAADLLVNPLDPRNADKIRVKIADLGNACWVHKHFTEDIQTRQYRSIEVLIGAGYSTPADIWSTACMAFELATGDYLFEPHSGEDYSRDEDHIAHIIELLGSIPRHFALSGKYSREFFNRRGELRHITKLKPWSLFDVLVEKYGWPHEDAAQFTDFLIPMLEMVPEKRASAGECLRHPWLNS

[8] = biological target: Myosin light chain kinase, smooth muscle (Homo sapiens) (UniProt Q15746); assay: Selectivity interaction (KinomScan Ambit) EUB0000622a MYLK; settings: at 10 µM
[9] = biological target: ALK tyrosine kinase receptor (Homo sapiens, UniProt Q9UM73); assay: Selectivity interaction (KinomScan Ambit) EUB0000622a ALK; settings: at 10 µM
Chain of ALK tyrosine kinase receptor (Q9UM73 19-1620 limits assumed): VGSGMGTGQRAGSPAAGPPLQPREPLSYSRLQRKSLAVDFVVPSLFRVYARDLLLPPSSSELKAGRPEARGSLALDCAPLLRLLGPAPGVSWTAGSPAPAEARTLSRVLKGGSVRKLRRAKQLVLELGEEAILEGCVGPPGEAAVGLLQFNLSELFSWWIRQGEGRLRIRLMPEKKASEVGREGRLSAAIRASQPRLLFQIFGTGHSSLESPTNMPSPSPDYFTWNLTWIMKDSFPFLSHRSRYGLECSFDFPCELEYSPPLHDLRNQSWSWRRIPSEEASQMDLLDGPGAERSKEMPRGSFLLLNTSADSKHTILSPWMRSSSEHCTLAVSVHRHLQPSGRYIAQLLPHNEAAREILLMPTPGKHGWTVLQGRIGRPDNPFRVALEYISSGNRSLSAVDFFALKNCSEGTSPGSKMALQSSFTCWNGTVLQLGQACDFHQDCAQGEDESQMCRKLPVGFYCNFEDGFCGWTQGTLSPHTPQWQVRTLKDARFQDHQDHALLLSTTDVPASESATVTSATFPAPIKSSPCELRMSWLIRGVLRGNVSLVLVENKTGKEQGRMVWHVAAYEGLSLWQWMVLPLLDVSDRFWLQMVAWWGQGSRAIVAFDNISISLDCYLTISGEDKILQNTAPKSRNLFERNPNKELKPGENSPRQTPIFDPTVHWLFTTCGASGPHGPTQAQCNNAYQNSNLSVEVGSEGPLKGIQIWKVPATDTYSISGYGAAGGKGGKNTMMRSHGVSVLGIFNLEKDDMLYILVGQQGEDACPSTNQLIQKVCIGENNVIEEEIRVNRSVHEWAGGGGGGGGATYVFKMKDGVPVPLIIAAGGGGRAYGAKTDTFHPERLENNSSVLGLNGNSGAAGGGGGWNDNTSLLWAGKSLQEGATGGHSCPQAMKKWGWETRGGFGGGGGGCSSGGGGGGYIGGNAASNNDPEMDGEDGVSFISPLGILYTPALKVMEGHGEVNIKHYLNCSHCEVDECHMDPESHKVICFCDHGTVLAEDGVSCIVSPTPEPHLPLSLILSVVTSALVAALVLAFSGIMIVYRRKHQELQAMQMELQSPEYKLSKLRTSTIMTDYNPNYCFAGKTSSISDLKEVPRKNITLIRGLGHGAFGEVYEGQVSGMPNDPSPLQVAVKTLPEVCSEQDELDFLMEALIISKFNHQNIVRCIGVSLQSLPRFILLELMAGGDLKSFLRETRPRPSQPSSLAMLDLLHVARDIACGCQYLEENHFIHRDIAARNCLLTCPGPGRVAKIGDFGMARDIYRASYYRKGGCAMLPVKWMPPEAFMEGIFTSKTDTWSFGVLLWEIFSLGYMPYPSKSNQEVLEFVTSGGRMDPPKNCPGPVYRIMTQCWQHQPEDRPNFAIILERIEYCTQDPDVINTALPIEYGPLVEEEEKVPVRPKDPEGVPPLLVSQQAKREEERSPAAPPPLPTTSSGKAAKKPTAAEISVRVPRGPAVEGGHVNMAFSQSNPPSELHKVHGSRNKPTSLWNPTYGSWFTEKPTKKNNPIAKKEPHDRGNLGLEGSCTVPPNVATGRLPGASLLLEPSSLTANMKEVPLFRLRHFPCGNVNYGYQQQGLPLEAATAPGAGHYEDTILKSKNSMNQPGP

[10] = tested on: T3, Receptor-type tyrosine-protein kinase FLT3 (Homo sapiens), P36888 [D835Y]; assay: Selectivity interaction (KinomScan Ambit) EUB0000622a FLT3; settings: at 10 µM
T3 sequence (whole entry): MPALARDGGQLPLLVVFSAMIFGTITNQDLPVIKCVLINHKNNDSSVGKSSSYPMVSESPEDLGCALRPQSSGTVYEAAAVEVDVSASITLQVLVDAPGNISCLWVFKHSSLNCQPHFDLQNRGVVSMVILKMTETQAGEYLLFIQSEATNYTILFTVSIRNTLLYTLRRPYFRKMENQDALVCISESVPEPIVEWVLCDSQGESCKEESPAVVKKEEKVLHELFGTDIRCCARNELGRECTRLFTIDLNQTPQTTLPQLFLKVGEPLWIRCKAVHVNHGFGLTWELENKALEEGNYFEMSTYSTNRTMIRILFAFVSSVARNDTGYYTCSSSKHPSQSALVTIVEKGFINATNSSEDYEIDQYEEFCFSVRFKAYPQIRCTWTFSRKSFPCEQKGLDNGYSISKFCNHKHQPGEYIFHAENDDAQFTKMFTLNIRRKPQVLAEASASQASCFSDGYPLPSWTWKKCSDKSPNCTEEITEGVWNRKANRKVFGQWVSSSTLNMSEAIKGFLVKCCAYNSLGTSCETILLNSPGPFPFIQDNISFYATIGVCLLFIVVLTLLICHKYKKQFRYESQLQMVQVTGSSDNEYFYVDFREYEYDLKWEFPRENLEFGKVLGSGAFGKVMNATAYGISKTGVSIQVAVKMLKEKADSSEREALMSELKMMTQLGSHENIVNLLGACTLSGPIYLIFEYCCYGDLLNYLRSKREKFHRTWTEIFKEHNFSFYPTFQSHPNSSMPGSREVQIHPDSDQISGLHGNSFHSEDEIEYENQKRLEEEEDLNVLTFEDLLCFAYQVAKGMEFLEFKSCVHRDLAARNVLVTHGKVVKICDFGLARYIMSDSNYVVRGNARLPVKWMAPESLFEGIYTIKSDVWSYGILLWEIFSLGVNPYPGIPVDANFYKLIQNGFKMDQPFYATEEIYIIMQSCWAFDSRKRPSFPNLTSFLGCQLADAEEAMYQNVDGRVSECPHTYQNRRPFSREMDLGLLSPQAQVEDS

[11] = biological target: T4, Tyrosine-protein kinase JAK3 (Homo sapiens) (UniProt P52333); settings: at 500 nM
T4 sequence (whole entry): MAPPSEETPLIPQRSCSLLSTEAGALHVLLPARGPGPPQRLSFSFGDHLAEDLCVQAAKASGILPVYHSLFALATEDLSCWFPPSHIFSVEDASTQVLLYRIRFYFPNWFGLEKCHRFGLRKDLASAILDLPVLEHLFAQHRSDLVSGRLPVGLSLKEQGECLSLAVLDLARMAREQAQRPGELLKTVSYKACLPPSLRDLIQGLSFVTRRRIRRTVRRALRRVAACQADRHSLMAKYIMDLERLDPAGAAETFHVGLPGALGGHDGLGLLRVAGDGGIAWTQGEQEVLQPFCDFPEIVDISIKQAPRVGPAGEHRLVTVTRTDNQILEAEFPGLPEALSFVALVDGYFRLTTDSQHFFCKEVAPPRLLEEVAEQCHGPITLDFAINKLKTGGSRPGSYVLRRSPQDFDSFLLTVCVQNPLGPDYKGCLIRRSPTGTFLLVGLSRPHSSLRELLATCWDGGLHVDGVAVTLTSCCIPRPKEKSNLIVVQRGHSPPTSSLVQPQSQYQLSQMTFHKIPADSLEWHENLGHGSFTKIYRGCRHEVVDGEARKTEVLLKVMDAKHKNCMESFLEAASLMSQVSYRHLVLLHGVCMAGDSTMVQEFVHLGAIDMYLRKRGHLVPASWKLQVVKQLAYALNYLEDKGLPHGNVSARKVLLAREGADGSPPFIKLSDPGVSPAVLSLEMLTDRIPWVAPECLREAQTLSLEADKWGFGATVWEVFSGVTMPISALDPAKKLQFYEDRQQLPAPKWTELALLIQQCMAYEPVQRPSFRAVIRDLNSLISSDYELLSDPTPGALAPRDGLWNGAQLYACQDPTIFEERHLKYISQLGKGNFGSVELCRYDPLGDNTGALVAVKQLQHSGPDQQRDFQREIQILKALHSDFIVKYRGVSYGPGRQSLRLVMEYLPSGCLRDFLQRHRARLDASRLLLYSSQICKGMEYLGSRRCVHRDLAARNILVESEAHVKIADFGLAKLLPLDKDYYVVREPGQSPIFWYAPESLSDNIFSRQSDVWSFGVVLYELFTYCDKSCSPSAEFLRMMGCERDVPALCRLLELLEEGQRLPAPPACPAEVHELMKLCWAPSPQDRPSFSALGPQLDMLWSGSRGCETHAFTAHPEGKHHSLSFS

Chain of 5-hydroxytryptamine receptor 1A (Homo sapiens) (P08908 whole entry): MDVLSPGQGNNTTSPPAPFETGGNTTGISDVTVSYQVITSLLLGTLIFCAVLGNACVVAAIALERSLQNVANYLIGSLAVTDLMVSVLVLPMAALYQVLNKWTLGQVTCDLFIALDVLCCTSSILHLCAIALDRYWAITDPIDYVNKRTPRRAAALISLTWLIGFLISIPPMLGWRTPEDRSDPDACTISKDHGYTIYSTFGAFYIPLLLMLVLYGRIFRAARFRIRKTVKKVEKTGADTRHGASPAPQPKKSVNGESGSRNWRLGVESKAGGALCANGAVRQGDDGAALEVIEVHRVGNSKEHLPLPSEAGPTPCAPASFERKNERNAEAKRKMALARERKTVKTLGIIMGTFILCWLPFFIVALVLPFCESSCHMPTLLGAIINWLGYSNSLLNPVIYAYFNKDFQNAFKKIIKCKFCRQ

Compound: c1ccc([C@@H]2C[C@H]2NC2CCNCC2)cc1
- % of inhibition [1]: 49%
- % of inhibition [2]: 74%
- % of inhibition [3]: 39%

Compound: OCCn1cc(-c2ccc3c(c2)CCC3=NO)c(-c2ccncc2)n1
- % of control [4]: 8%

Compound: CC(=O)N1CCC(c2ccc(C(=O)NC(=N)N)cc2C(F)(F)F)CC1
- % of inhibition [5]: 67%
- % of control [6]: 34%
- % of control [7]: 0%

Compound: O=C(Nc1cccnc1)c1cc(-c2ccnc(F)c2)ccc1OCc1ccccc1
- % of control [8]: < 50%
- % of control [9]: < 50%
- % of control [10]: < 50%

Compound: CN(C)C(=O)/C(C#N)=C/c1ccc(-c2nc3cnc4[nH]ccc4c3n2C2CCCCC2)o1
- % of inhibition [11]: 97%
